Source: PubChem BioAssay AID180 (DTP/NCI, 2004)
Where “and” joins values, the source holds several entries; their conditions need not be identical. Equal values may be shown once.

Tested on: BDF1 mice, Adenocarcinoma 755 s.c., tumor weight T/C
Test: NCI In Vivo Anticancer Drug Screen. Data for tumor model Adenocarcinoma 755 (subcutaneous) in B6D2F1 (BDF1) mice
Details: endpoint: mean tumor weight, higher = larger tumour
Method: The antitumor activity of compounds was measured in mice bearing transplantable tumors. Survival or tumor size were measured and the results are expressed as the measurement made in the treated group (T) divided by the measurement made in the vehicle treated control group (C). The tumor model used in this assay is Adenocarcinoma 755 (subcutaneous) in B6D2F1 (BDF1) mice

[1] = dose: 12.0 mg/kg/injection, schedule: Q01DX011 (ip), vehicle: carboxymethylcellulose (CMC)

## c1ccc(CSc2ncnc3nc[nH]c23)cc1
dose: 1.5 mg/kg/injection, schedule: Q01DX011 (ip), vehicle: alkali diluted with saline
  T/C: 2 % of control
dose: 1.5 mg/kg/injection, schedule: Q01DX011 (oral), vehicle: alkali diluted with saline
  T/C: 22 % of control
dose: 2.5 mg/kg/injection, schedule: Q01DX011 (ip), vehicle: saline
  T/C: 35 % of control
dose: 3.0 mg/kg/injection, schedule: Q01DX011 (ip), vehicle: alkali diluted with saline
  T/C: 44 % of control
dose: 3.0 mg/kg/injection, schedule: Q01DX011 (ip), vehicle: carboxymethylcellulose (CMC)
  T/C: 59 % of control
dose: 3.0 mg/kg/injection, schedule: Q01DX011 (oral), vehicle: alkali diluted with saline
  T/C: 28 % of control
dose: 3.1 mg/kg/injection, schedule: Q01DX011 (ip), vehicle: carboxymethylcellulose (CMC)
  T/C: 43 % of control
dose: 5.0 mg/kg/injection, schedule: Q01DX011 (ip), vehicle: saline
  T/C: 12 % of control
dose: 6.0 mg/kg/injection, schedule: Q01DX006 (iv), vehicle: saline
  T/C: 17 % of control
dose: 6.0 mg/kg/injection, schedule: Q01DX011 (im), vehicle: saline
  T/C: 12 % of control
dose: 6.0 mg/kg/injection, schedule: Q01DX011 (ip), vehicle: alkali diluted with saline
  T/C: 16 % of control
dose: 6.0 mg/kg/injection, schedule: Q01DX011 (ip), vehicle: carboxymethylcellulose (CMC)
  T/C: 22 % of control and 32 % of control
dose: 6.0 mg/kg/injection, schedule: Q01DX011 (ip), vehicle: saline
  T/C: 2 % of control
dose: 6.0 mg/kg/injection, schedule: Q01DX011 (oral), vehicle: alkali diluted with saline
  T/C: 16 % of control
dose: 6.0 mg/kg/injection, schedule: Q01DX011 (sc), vehicle: steriod suspending solution
  T/C: 9 % of control
dose: 6.2 mg/kg/injection, schedule: Q01DX011 (ip), vehicle: carboxymethylcellulose (CMC)
  T/C: 15 % of control
dose: 10.0 mg/kg/injection, schedule: Q01DX011 (ip), vehicle: saline
  T/C: 5 % of control
dose: 11.0 mg/kg/injection, schedule: Q07DX002 (ip), vehicle: alkali diluted with saline
  T/C: 39 % of control
dose: 12.0 mg/kg/injection, schedule: Q01DX006 (iv), vehicle: saline
  T/C: 2 % of control
dose: 12.0 mg/kg/injection, schedule: Q01DX011 (im), vehicle: saline
  T/C: 3 % of control
[1]
  T/C: 3 % of control
dose: 12.0 mg/kg/injection, schedule: Q01DX011 (oral), vehicle: alkali diluted with saline
  T/C: 54 % of control
dose: 12.0 mg/kg/injection, schedule: Q01DX011 (sc), vehicle: steriod suspending solution
  T/C: 5 % of control
dose: 12.5 mg/kg/injection, schedule: Q01DX011 (ip), vehicle: carboxymethylcellulose (CMC)
  T/C: 3 % of control
dose: 13.0 mg/kg/injection, schedule: Q01DX011 (ip), vehicle: carboxymethylcellulose (CMC)
  T/C: 17 % of control
dose: 19.0 mg/kg/injection, schedule: Q03DX004 (ip), vehicle: carboxymethylcellulose (CMC)
  T/C: 31 % of control
dose: 22.0 mg/kg/injection, schedule: Q07DX002 (ip), vehicle: alkali diluted with saline
  T/C: 50 % of control
dose: 25.0 mg/kg/injection, schedule: Q01DX006 (iv), vehicle: carboxymethylcellulose (CMC)
  T/C: 9 % of control
dose: 25.0 mg/kg/injection, schedule: Q01DX006 (iv), vehicle: saline
  T/C: 3 % of control
dose: 25.0 mg/kg/injection, schedule: Q01DX011 (im), vehicle: saline
  T/C: 1 % of control
dose: 25.0 mg/kg/injection, schedule: Q01DX011 (ip), vehicle: saline
  T/C: 2 % of control
dose: 25.0 mg/kg/injection, schedule: Q01DX011 (oral), vehicle: carboxymethylcellulose (CMC)
  T/C: 10 % of control
dose: 25.0 mg/kg/injection, schedule: Q01DX011 (sc), vehicle: carboxymethylcellulose (CMC)
  T/C: 14 % of control
dose: 25.0 mg/kg/injection, schedule: Q01DX011 (sc), vehicle: steriod suspending solution
  T/C: 3 % of control
dose: 38.0 mg/kg/injection, schedule: Q03DX004 (ip), vehicle: carboxymethylcellulose (CMC)
  T/C: 2 % of control
dose: 44.0 mg/kg/injection, schedule: Q07DX002 (ip), vehicle: alkali diluted with saline
  T/C: 43 % of control
dose: 44.0 mg/kg/injection, schedule: Q07DX002 (ip), vehicle: carboxymethylcellulose (CMC)
  T/C: 5 % of control
dose: 50.0 mg/kg/injection, schedule: Q01DX006 (iv), vehicle: carboxymethylcellulose (CMC)
  T/C: 17 % of control
dose: 50.0 mg/kg/injection, schedule: Q01DX011 (im), vehicle: carboxymethylcellulose (CMC)
  T/C: 8 % of control
dose: 50.0 mg/kg/injection, schedule: Q01DX011 (ip), vehicle: carboxymethylcellulose (CMC)
  T/C: 3 % of control and 8 % of control
dose: 50.0 mg/kg/injection, schedule: Q01DX011 (oral), vehicle: carboxymethylcellulose (CMC)
  T/C: 6 % of control
dose: 50.0 mg/kg/injection, schedule: Q01DX011 (sc), vehicle: steriod suspending solution
  T/C: 1 % of control
dose: 75.0 mg/kg/injection, schedule: Q03DX004 (ip), vehicle: carboxymethylcellulose (CMC)
  T/C: 2 % of control and 13 % of control
dose: 88.0 mg/kg/injection, schedule: Q07DX002 (ip), vehicle: alkali diluted with saline
  T/C: 16 % of control
dose: 88.0 mg/kg/injection, schedule: Q07DX002 (ip), vehicle: carboxymethylcellulose (CMC)
  T/C: 45 % of control
dose: 100.0 mg/kg/injection, schedule: Q01DX011 (im), vehicle: carboxymethylcellulose (CMC)
  T/C: 1 % of control and 2 % of control
dose: 100.0 mg/kg/injection, schedule: Q01DX011 (ip), vehicle: carboxymethylcellulose (CMC)
  T/C: 2 % of control
dose: 100.0 mg/kg/injection, schedule: Q01DX011 (sc), vehicle: steriod suspending solution
  T/C: 2 % of control
dose: 175.0 mg/kg/injection, schedule: Q07DX002 (ip), vehicle: carboxymethylcellulose (CMC)
  T/C: 3 % of control and 4 % of control
dose: 200.0 mg/kg/injection, schedule: Q01DX011 (im), vehicle: carboxymethylcellulose (CMC)
  T/C: 11 % of control and 17 % of control
dose: 200.0 mg/kg/injection, schedule: Q01DX011 (oral), vehicle: carboxymethylcellulose (CMC)
  T/C: 1 % of control and 6 % of control
dose: 200.0 mg/kg/injection, schedule: Q01DX011 (sc), vehicle: carboxymethylcellulose (CMC)
  T/C: 17 % of control
dose: 300.0 mg/kg/injection, schedule: Q03DX004 (ip), vehicle: carboxymethylcellulose (CMC)
  T/C: 6 % of control
dose: 350.0 mg/kg/injection, schedule: Q07DX002 (ip), vehicle: carboxymethylcellulose (CMC)
  T/C: 1 % of control and 6 % of control
dose: 600.0 mg/kg/injection, schedule: Q03DX004 (ip), vehicle: alkali diluted with saline
  T/C: 3 % of control
dose: 700.0 mg/kg/injection, schedule: Q07DX002 (ip), vehicle: carboxymethylcellulose (CMC)
  T/C: 1 % of control

## [N-]=[N+]=C1C(=O)NC(=O)N2C3CC(O)C(COC12)O3 (centres undefined)
dose: 30.0 mg/kg/injection, schedule: Q01DX011 (ip), vehicle: saline
  T/C: 87 % of control
dose: 60.0 mg/kg/injection, schedule: Q01DX011 (ip), vehicle: saline
  T/C: 80 % of control
dose: 120.0 mg/kg/injection, schedule: Q01DX011 (ip), vehicle: saline
  T/C: 97 % of control
dose: 240.0 mg/kg/injection, schedule: Q01DX011 (ip), vehicle: saline
  T/C: 68 % of control
dose: 400.0 mg/kg/injection, schedule: Q01DX011 (ip), vehicle: carboxymethylcellulose (CMC)
  T/C: 40 % of control

## Cc1cc2nc3c(=O)[nH]c(=O)nc-3n(CC(O)C(O)C(O)C(O)CO)c2cc1C (centres undefined)
[1]
  T/C: 96 % of control and 111 % of control
dose: 14.13 mg/kg/injection, schedule: Q01DX011 (ip), vehicle: carboxymethylcellulose (CMC)
  T/C: 91 % of control
dose: 19.0 mg/kg/injection, schedule: Q01DX011 (ip), vehicle: carboxymethylcellulose (CMC)
  T/C: 90 % of control and 76 % of control
dose: 26.25 mg/kg/injection, schedule: Q01DX011 (ip), vehicle: carboxymethylcellulose (CMC)
  T/C: 79 % of control
dose: 28.25 mg/kg/injection, schedule: Q01DX011 (ip), vehicle: carboxymethylcellulose (CMC)
  T/C: 122 % of control
dose: 52.5 mg/kg/injection, schedule: Q01DX011 (ip), vehicle: carboxymethylcellulose (CMC)
  T/C: 95 % of control
dose: 56.5 mg/kg/injection, schedule: Q01DX011 (ip), vehicle: carboxymethylcellulose (CMC)
  T/C: 60 % of control
dose: 62.5 mg/kg/injection, schedule: Q01DX011 (ip), vehicle: methylcellulose (MC)
  T/C: 94 % of control
dose: 105.0 mg/kg/injection, schedule: Q01DX011 (ip), vehicle: carboxymethylcellulose (CMC)
  T/C: 116 % of control
dose: 113.0 mg/kg/injection, schedule: Q01DX011 (ip), vehicle: carboxymethylcellulose (CMC)
  T/C: 62 % of control
dose: 125.0 mg/kg/injection, schedule: Q01DX011 (ip), vehicle: methylcellulose (MC)
  T/C: 27 % of control
dose: 210.0 mg/kg/injection, schedule: Q01DX011 (ip), vehicle: carboxymethylcellulose (CMC)
  T/C: 101 % of control

## CCCCCCC(=O)NC1=C(N2CC2)C(=O)C(NC(=O)CCCCCC)=C(N2CC2)C1=O
dose: 11.25 mg/kg/injection, schedule: Q01DX011 (ip), vehicle: carboxymethylcellulose (CMC)
  T/C: 48 % of control
dose: 45.0 mg/kg/injection, schedule: Q01DX011 (ip), vehicle: carboxymethylcellulose (CMC)
  T/C: 4 % of control

## Cc1ccc2ccccc2c1CSc1ncnc2nc[nH]c12
dose: 10.0 mg/kg/injection, schedule: Q01DX011 (ip), vehicle: methylcellulose (MC)
  T/C: 38 % of control
dose: 20.0 mg/kg/injection, schedule: Q01DX011 (ip), vehicle: methylcellulose (MC)
  T/C: 40 % of control
dose: 40.0 mg/kg/injection, schedule: Q01DX011 (ip), vehicle: methylcellulose (MC)
  T/C: 11 % of control
dose: 80.0 mg/kg/injection, schedule: Q01DX011 (ip), vehicle: methylcellulose (MC)
  T/C: 9 % of control
